Measurements as given in PMC4941645, “Oxidative Stress Induced by Pt(IV) Pro-drugs Based on the Cisplatin Scaffold and Indole Carboxylic Acids in Axial Position” (Scientific Reports, 2016).

Tests used:
[1] = system: MCF-7 breast carcinoma cells; test: MTT cytotoxicity test, MCF-7; type: cell-based, human; conditions: ± S.D.
Method: (§1) The cytotoxic activity of the complexes and of the uncoordinated ligands was evaluated by the MTT test on a panel of human tumor cell lines containing examples of pancreatic (BxPC3), colorectal (HCT-15), breast (MCF-7), cervical (A431), and lung (A549) cancers as well as of melanoma (A375). For comparison purposes, the cytotoxicity of cisplatin was evaluated under the same experimental conditions.
(§2) Cisplatin was dissolved in 0.9% NaCl solution.
(§3) Human breast (MCF-7), colon (HCT-15), lung (A549) and pancreatic (BxPC3) carcinoma cell lines together with melanoma (A375) cells were obtained from American Type Culture Collection (ATCC, Rockville, MD). The human ovarian cancer cell line 2008 and its cisplatin resistant variant, C13*, were kindly provided by Prof. G. Marverti (Department of Biomedical Science of Modena University, Italy). Human cervical carcinoma (A431) cells were kindly provided by Prof. F. Zunino (Division of Experimental Oncology B, Istituto Nazionale dei Tumori, Milan, Italy). Cell lines were maintained in the logarithmic phase at 37 °C in a 5% carbon dioxide atmosphere using the following culture media containing 10% fetal calf serum (Euroclone, Milan, Italy), antibiotics (50 units/mL penicillin and 50 μg/mL streptomycin) and 2 mM L-glutamine: (i) RPMI-1640 medium (Euroclone) for 2008, C13*, MCF-7, HCT-15, A431 and BxPC3 cells, (ii) F-12 HAM’S (Sigma Chemical Co.) for A549 cells, iii) DMEM (Sigma Chemical Co.) for A375 cells.
(§4) The growth inhibitory effect toward tumor cells was evaluated by means of the MTT assay. Briefly, (3–8) × 10^3 cells/well, dependent upon the growth characteristics of the cell line, were seeded in 96-well microplates in growth medium (100 μL). After 24 h, the medium was removed and replaced with fresh medium containing the compound to be studied at the appropriate concentration. Triplicate cultures were established for each treatment. After 24, 48, or 72 h, each well was treated with 10 μL of a 5 mg/mL MTT saline solution and, after 5 h of incubation, 100 μL of a sodium dodecylsulfate (SDS) solution in 0.01 M HCl was added. After an overnight incubation, cell growth inhibition was detected by measuring the absorbance of each well at 570 nm using a Bio-Rad 680 microplate reader. The mean absorbance for each drug dose was expressed as a percentage of the control, untreated well absorbance and plotted vs drug concentration. The IC50 values, the drug concentrations that decrease the mean absorbance at 570 nm to 50% of that of untreated control wells, were calculated from the dose–response curves with the four-parameter logistic model (4PL). The final value is the mean ± S.D. of at least three independent experiments performed in triplicate.

A375 melanoma cells [2] = test: MTT cytotoxicity test, A375; type: cell-based, human; conditions: ± S.D.
Method: as §1, §2, §3, §4

[3] = system: A431 cervical carcinoma cells; test: MTT cytotoxicity test, A431; type: cell-based, human; conditions: ± S.D.
Method: as §1, §2, §3, §4

[4] = system: panel of human tumor cell lines (BxPC3, HCT-15, MCF-7, A431, A549, A375); test: MTT cytotoxicity, mean over panel of human tumor cell lines; type: cell-based; conditions: for IC50: mean over the six cell lines of Table 1, 72 h
Method: as §1, §4

[5] = system: BxPC3 pancreatic carcinoma cells; test: MTT cytotoxicity test, BxPC3; type: cell-based, human; conditions: BxPC3, 72 h, MTT, ± S.D.
Method: as §1, §2, §3, §4

[6] = system: A549 lung carcinoma cells; test: cells; conditions: A549, 72 h
Method: as §1, §2, §3, §4

[7] = system: HCT-15 colon carcinoma cells; test: MTT cytotoxicity test, HCT-15; type: cell-based, human; conditions: HCT-15, 72 h, MTT, ± S.D.
Method: as §1, §2, §3, §4

[8] = system: 2008 ovarian cancer cells; test: MTT cytotoxicity test, cisplatin-sensitive 2008; type: cell-based, human; conditions: 2008 cisplatin-sensitive, 72 h, ± S.D.
Method: The cytotoxic properties of the complexes were also evaluated in a pair of tumor cell lines suitably selected for their sensitivity and resistance to cisplatin (adenocarcinoma cells 2008/C13^*). Cross-resistance profiles were evaluated by means of the resistance factor (RF), defined as the ratio between IC50 values calculated for the resistant cells and those obtained with the sensitive ones (Table 2). The phenomenon of cisplatin resistance is multifactorial in nature. Nevertheless, the main molecular mechanisms involved in drug resistance in C13* cancer cells have largely been identified. Indeed, in this cell line resistance is correlated to high cellular glutathione and thioredoxin reductase levels, reduced cellular drug uptake and enhanced repair of DNA damage. […] The RF values calculated for all derivatives were six- to nine-fold lower than that of cisplatin, clearly indicating the absence of cross-resistance.
as §2
Triplicate cultures were established for each treatment.

[9] = system: C13* cisplatin-resistant ovarian cancer cells; test: MTT cytotoxicity test, cisplatin-resistant C13*; type: cell-based, human
Method: The cytotoxic properties of the complexes were also evaluated in a pair of tumor cell lines suitably selected for their sensitivity and resistance to cisplatin (adenocarcinoma cells 2008/C13^*). Cross-resistance profiles were evaluated by means of the resistance factor (RF), defined as the ratio between IC50 values calculated for the resistant cells and those obtained with the sensitive ones (Table 2). The phenomenon of cisplatin resistance is multifactorial in nature.
as §2, §3, §4

[10] = system: nuclear DNA of A375 cells; test: Nuclear DNA platination (GF-AAS); type: cell-based, human; conditions: A375, 5 μM, 24 h
Method: It is well known that the main cellular target of platinum complexes is the DNA, and platination of nuclear DNA is a critical step in triggering the death of cancer cells by platinum-based drugs. On this basis, the amount of platinum bound to nuclear DNA was also assessed in A375 cells treated with the tested Pt(IV) complexes. Cells were treated for 24 h with 5 μM of the tested complexes, the nuclear DNA was isolated and the amount of Pt in each sample was determined by means of GF-AAS analysis. The results expressed as pg Pt/ng DNA are depicted in Fig. 7. […] In particular, 1P led to a roughly 60-fold higher DNA platination level with respect to cisplatin.
A375 cells (3 × 10^6) were seeded in 10 cm Petri dishes in 10 mL of culture medium. Subsequently, cells were treated with the tested complexes (5 μM) for 24 h. The DNA was extracted and purified by a commercial spin column quantification kit (Qiagen DNeasy Blood and Tissue Kit). Only highly purified samples (A260/A230 ≅ 1.8 and […]) were included for analysis to avoid any artifacts. The samples were completely dried and re-dissolved in 200 μL of Milli-Q water (18.2 MΩ) for at least 20 min at 65 °C in a shaking thermo-mixer, mineralized and analyzed for total Pt content by GF-AAS as described above.

[11] = Log P octanol/water, shake flask method with ICP-MS; type: physicochemical; conditions: n-octanol / 0.9% NaCl water, Pt by ICP-MS
Method: Partition coefficients (logP values) for octanol/water partition were determined in order to examine whether a correlation exists between lipophilicity and accumulation into cells. The log P values obtained (Table 3) give the trend in lipophilicity as mono indole acid complex < succinate complex < acetate complex < bis indole acid complex < benzoate complex for both the IAA and the IPA series.
The logP values of the Pt(IV) compounds were determined using the shake flask method. The respective Pt(IV) complex was dissolved in 0.9% NaCl (w/v) ultrapure water (presaturated with n-octanol). The solutions were sonicated and filtered to remove undissolved Pt(IV) compounds. The initial Pt concentrations were determined by ICP-MS. Subsequently, the Pt(IV) solutions were added to an equal volume of n-octanol (presaturated with 0.9% NaCl (w/v) ultrapure water). The heterogeneous mixtures were shaken vigorously for 30 min before centrifuging at 4000 rpm for 30 min to achieve phase separation. The final Pt concentration in the aqueous phase was determined again by ICP-MS. The logarithm of the ratio of Pt concentrations in the organic and aqueous phases was calculated to determine the logP values. All experiments were done in duplicate.

A375 melanoma cells [12] = test: Cellular accumulation of Pt (GF-AAS); type: cell-based, human
A375 cells = test: ROS production (CM-H2DCFDA probe); type: cell-based, human; conditions: A375, 12.5 μM, compared with antimycin positive control
Method: ROS are products of normal cell metabolism but their levels can be increased upon exposure to toxic agents or interference with the cellular redox network. […] Consequently, cellular ROS levels upon treatment with equal doses (12.5 μM) of the different platinum complexes were monitored in A375 cancer cells by using the peroxide-sensitive fluorescent probe CM-H2DCFDA (5-(and-6)-chloromethyl-2′,7′-dichlorodihydrofluorescein diacetate, acetyl ester). Antimycin, a classical inhibitor of the mitochondrial respiratory chain at the level of complex III, was used as a positive control.
Figure 8 ROS production in A375 cells. Cells were preincubated in PBS/10 mM glucose medium for 20 min at 37 °C in the presence of 10 μM CM-DCFDA and then treated with equimolar doses (12.5 μM) of indole propionic acid Pt(IV) derivatives (panel A) or indole acetic acid Pt(IV) derivatives (panel B). The fluorescence of DCF was measured.
The production of ROS was measured in A375 cells (10^4 per well) grown for 24 h in 96-well plates in DMEM medium without phenol red (Sigma Chemical Co.). Cells were then washed with PBS and loaded with 10 μM 5-(and-6)-chloromethyl-2′,7′-dichlorodihydrofluorescein diacetate, acetyl ester (CM–H2DCFDA) (Molecular Probes-Invitrogen) for 25 min in the dark. Afterwards, cells were washed with PBS and incubated with increasing concentrations of the tested complexes. The fluorescence increase was estimated with a plate reader (Fluoroskan Ascent FL, Labsystem, Finland) at 485 (excitation) and 527 nm (emission). Antimycin (3 μM, Sigma Chemical Co.), a potent inhibitor of Complex III in the electron transport chain, was used as positive control.

N.N.[Cl][Pt][Cl] [cisplatin]
IC50 ([1]; MCF-7, 72 h): 7.6 ± 2.96 µM | IC50 (A375 melanoma cells [2]; A375, 72 h): 2.06 ± 1.01 µM | IC50 ([3]; A431, 72 h): 1.96 ± 0.84 µM | IC50 [4]: 8.33 µM | IC50 [5]: 10.2 ± 1.65 µM | IC50 ([6]; MTT, ± S.D.): 12.6 ± 0.81 µM | IC50 [7]: 15.5 ± 2.48 µM | IC50 [8]: 2.26 ± 1.06 µM | RF (resistance factor) ([9]; IC50 resistant (C13*) / parent line (2008)): 10.5

[NH2][Pt]([NH2])([Cl])([Cl])([O]C(=O)CCC(=O)O)[O]C(=O)CCc1c[nH]c2ccccc12 [Complex 4P]
IC50 ([1]; MCF-7, 72 h): 40.56 ± 0.08 µM | IC50 (A375 melanoma cells [2]; A375, 72 h): 8.66 ± 4.03 µM | DNA platination (in words) [10]: least effective | Log P (octanol/water) [11]: −0.100 ± 0.05 | IC50 ([3]; A431, 72 h): 29.2 ± 4.19 µM | IC50 [4]: 30.4 µM | IC50 [5]: > 50 µM | IC50 ([6]; MTT, ± S.D.): 11.8 ± 1.06 µM | IC50 [7]: 42 ± 1.92 µM | cellular platinum accumulation (in words) (A375 melanoma cells [12]; A375, 1.5 and 3 μM, 6 and 24 h): lowest platinum accumulation | cellular uptake level, times lower than cisplatin (A375 melanoma cells [12]; A375, GF-AAS): about 7 | IC50 [8]: > 50 µM | IC50 ([9]; C13* cisplatin-resistant, 72 h, MTT, ± S.D.): > 50 µM

O=C(O)CCc1c[nH]c2ccccc12 [IPA, indole-3-propionic acid, reference compound]
IC50 ([1]; Homo sapiens, MCF7, MCF-7, 72 h): > 50 µM | IC50 (A375 melanoma cells [2]; Homo sapiens, A-375, A375, 72 h): > 50 µM | ROS production (in words) (A375 cells): no effect on cellular basal ROS levels | IC50 ([3]; Homo sapiens, A-431, A431, 72 h): > 50 µM | cytotoxic effect (in words) ([4]; free ligands): did not elicit any significant cytotoxic effect | IC50 ([5]; Homo sapiens, BXPC-3): > 50 µM | IC50 ([6]; Homo sapiens): > 50 µM | IC50 ([7]; Homo sapiens): > 50 µM
